The target of one data set is benzodiazepine receptors. As to the kind of experiment: Displacement of 3H-flunitrazepam binding in vitro (rat forebrain). Particulars: 3H-flunitrazepam 1.0 nM, 0° C. In general terms: Loss of bound radioactivity is the signal in a displacement assay; it reports binding, not function.
For another data set, the system named is benzodiazepin receptors. As to the kind of experiment: Inhibition of 3H-flunitrazepam binding in vivo (mouse forebrain). The following applies: mice, s.c.; 3H-flunitrazepam i.v. 15 min later, killed after additional 20 min; 35 min. Here is the method:
The displacement activity of the compounds of the invention has been determined by determined the IC50 value and ED50 value.
The ED50 value represents the dose (mg/kg) of a test substance which causes the specific binding of flunitrazepam to benzodiazepin receptors in a living brain to be reduced to 50% of the control value. Such an in vivo test is carried out as follows:
Groups of mice are injected with the test substance at different doses and usually subcutaneously. 15 minutes later, ^3 H-flunitrazepam is given intravenously to the mice and after an additional 20 minutes, the mice are killed. Their forebrain membranes are removed and the radioactivity of the forebrain membranes is measured by scintillation counting. The ED50 value is determined from dose-response curves.

The subject of data set [1] is rats. In words: Motility of rats in familiar cages during rest period (awakening effect). The data set is classed as in vivo. The following applies: for motility versus saline control: 4 hours; for behavior during the experimental (rest) period: ethyl ester 20-100 mg/kg s.c., methylamide 20-100 mg/kg p.o., amphetamine s.c. Here is the method: Normal locomotion, grooming and eating occur during the dark period and rest during the light period. If CNS stimulants are given to rats which have stayed in their cages for several hours, a pronounced hypermotility is observed during the light period (Buus Lassen, Psychopharmacologia 1973, 29, 55-64; Kallman and Isaac, Psychopharmacologia 1975, 40, 313-318).
Psysiological saline and test substances were administered s.c. or p.o. to rats kept in familiar cages. The motility was measured for 4 hours (2 periods of 2 hours) after administrations. The motility of groups receiving test substances was compared (Student's t-test) with the motility of the saline-treated control group.

The subject of the next data set is mice. As to the kind of experiment: Inhibition of aggression in isolated male mice. The data set is classed as in vivo. The following applies: Mus musculus, sc, 0.5 h, s.c., 1/2 hour, read-out: ED50 inhibition of agression (1/2h). Here is the method:
The inhibition of aggression has been determined on male mice (NMR from Mollegaard, Denmark) having a weight of 20-22 g. The mice are isolated for 3 weeks in plastic cages and when two mice subsequently are brought into the same cage, they will spontaneously and almost instantaneously start fighting. […] J. Pharmacol., 1978, 47, 45-49. The compounds of the invention were administered subcutaneously and orally and the antiaggressive effect after 1/2 hour was determined. Based on the data obtained, the ED50 value has been calculated.

For data set [2], the system named is rats. As to the kind of experiment: Inhibition of exploratory motility in rats (sedative effect). The data set is classed as in vivo. Particulars: Rattus norvegicus, sc, 0.5 h, 30 min after s.c. administration, first 10 min in novel cage. Here is the method: Inhibition of exploratory motility in rodents is a widely used test for sedative effect. A compound of this invention and two well known tranquilizers have been subjected to such a test.
30 Minutes after subcutaneous administration of physiological saline and test substances, rats were transferred to a novel cage and the motility was measured for the first 10 minutes. The ED50 is the dose inhibiting the motility by 50% as compared to the controls.

A short description of data set [3]: Acute toxicity in mice (deaths within 24 hours). Particulars: mouse, in vivo. On the procedure:
The acute toxicity in mice was determined by recording the number of deaths within 24 hours.

Data set [4] is described as follows: Inhibition of motor coordination (ataxia) in mice. Particulars: mouse, in vivo, sc, 30 minutes after s.c. administration, read-out: ED50 Ataxia (Motor incoordination).
Procedure: The inhibition of motor coordination in mice was also studied 30 minutes after subcutaneous administration in accordance with a method described in the literature (Buus Lassen et al, Acta pharmacol. et toxicol., 1971, 39, 1-16).

By LD50 is commonly meant the dose expected to kill half of the subjects tested. Read a low LD50 as greater toxicity.

For `O=C(c1cc2c(cn1)[nH]c1ccccc12)N1CCCC1`, on benzodiazepine receptors, the “IC50 in vitro, inhibition of 3H-flunitrazepam binding” value (“IC50 in vitro, inhibition” below) was 3.3 mg/L. For the same molecule, the “ED50 in vivo, inhibition of 3H-flunitrazepam binding” value (from here on “ED50 in vivo, inhibition”) in the data set on benzodiazepin receptors is listed as > 250 mg/kg s.c.
The like results for `O=C(c1cc2c(cn1)[nH]c1ccccc12)N1CCCCC1` were, in that order, 0.36 mg/L and > 250 mg/kg s.c.
Regarding `CN1CCN(C(=O)c2cc3c(cn2)[nH]c2ccccc23)CC1`, the “IC50 in vitro, inhibition” value on benzodiazepine receptors was > 4 mg/L. In addition, in the data set with benzodiazepin receptors, the “ED50 in vivo, inhibition” value is given as > 250 mg/kg s.c.
Turning to `CC(N)Cc1ccccc1` (centres unmarked) [Amphetamine, reference compound], the “motility versus saline control” value with rats [1] (0.5-5 mg/ig s.c.) is listed as “produced a significant hypermotility”. Besides, the “behavior during the experimental (rest) period” value (from here on “behavior during the experimental”) was “continuous, stereotyped sniffing, rearing and licking on the cage walls” with rats [1]; “induced an abnormal behavior which never occurs in saline-treated control rats” in the data set on rats [1] (listed as amphetamine).
For `CNC1=Nc2ccc(Cl)cc2C(c2ccccc2)=[N+]([O-])C1` [Chlordiazepoxide, reference compound], the values for the ED50 with mice and with rats [2] were 45 mg/kg and 1.2 mg/kg, respectively. In addition, the LD50 at 24 h in data set [3] turned out to be 700 mg/kg. In addition, in data set [4], the TD50 at 0.5 h was found to be 50 mg/kg.
Turning to `CN1C(=O)CN=C(c2ccccc2)c2cc(Cl)ccc21` [Diazepam, reference compound], the “motility versus saline control” value in the data set with rats [1] (10-20 mg/kg s.c.) is on record as “did not influence motility”. Further, the ED50 was found to be 3 mg/kg in the data set with mice and 0.4 mg/kg in the data set on rats [2].
Take `CCN(CC)C(=O)c1cc2c(cn1)[nH]c1ccccc12` [N C2 H5 (C2 H5), β-carbolin-3-carboxylic acid diethylamide]: the ED50 with mice turned out to be 35 mg/kg. Besides, the “IC50 in vitro, inhibition” value at benzodiazepine receptors stood at 4.3 mg/L. Besides, the “ED50 in vivo, inhibition” value in the data set with benzodiazepin receptors came out at 82 mg/kg s.c.
Take `CN(C(=O)c1cc2c(cn1)[nH]c1ccccc12)c1ccccc1` [N CH3 (C6 H5), N-methyl-N-phenyl-β-carbolin-3-carboxamide]: at benzodiazepine receptors, the “IC50 in vitro, inhibition” value is > 4 mg/L. For the same molecule, the “ED50 in vivo, inhibition” value in the data set on benzodiazepin receptors is reported as > 250 mg/kg s.c.
For `CCNC(=O)c1cc2c3ccccc3n(C(=O)OCC)c2cn1` [NH(C2 H5), COOC2 H5, 9-carbethoxy β-carbolin-3-carboxylic acid, ethylamide], the “IC50 in vitro, inhibition” value on benzodiazepine receptors is 0.16 mg/L. Also, the “ED50 in vivo, inhibition” value with benzodiazepin receptors is listed as > 100 mg/kg s.c.
`CCNC(=O)c1cc2c(cn1)[nH]c1ccccc12` [NH(C2 H5), β-carbolin-3-carboxylic acid N-ethylamide]: in the data set with mice, the ED50 is 18 mg/kg. Moreover, the “IC50 in vitro, inhibition” value at benzodiazepine receptors stood at 0.11 mg/L. Further, the LD50 at 24 h in data set [3] was > 250 mg/kg. In data set [4], the TD50 at 0.5 h is > 100 mg/kg. Moreover, in the data set on benzodiazepin receptors, the “ED50 in vivo, inhibition” value is 42 mg/kg s.c.
As to `O=C(NC1CC1)c1cc2c(cn1)[nH]c1ccccc12` [NH(C3 H5), N'-cyclopropyl-β-carbolin-3-carboxamide], the “IC50 in vitro, inhibition” value on benzodiazepine receptors was 0.044 mg/L. Further, the “ED50 in vivo, inhibition” value in the data set on benzodiazepin receptors turned out to be 38 mg/kg s.c.
As to `O=C(NCc1ccccc1)c1cc2c(cn1)[nH]c1ccccc12` [NH(CH2 C6 H5)], at benzodiazepine receptors, the “IC50 in vitro, inhibition” value is 0.017 mg/L. The “ED50 in vivo, inhibition” value in the data set on benzodiazepin receptors was > 250 mg/kg s.c.
For `O=C(NCCO)c1cc2c(cn1)[nH]c1ccccc12` [NH(CH2 CH2 OH)], in that order: 0.2 mg/L and 56 mg/kg s.c.
For `NC(=O)CNC(=O)c1cc2c(cn1)[nH]c1ccccc12` [NH(CH2 CONH2)], on benzodiazepine receptors, the “IC50 in vitro, inhibition” value was determined as 0.92 mg/L. The “ED50 in vivo, inhibition” value in the data set on benzodiazepin receptors is on record as > 250 mg/kg s.c.
For `CCOC(=O)CNC(=O)c1cc2c(cn1)[nH]c1ccccc12` [NH(CH2 COOC2 H5)], the “IC50 in vitro, inhibition” value at benzodiazepine receptors was determined as 0.16 mg/L. The “ED50 in vivo, inhibition” value in the data set on benzodiazepin receptors is > 250 mg/kg s.c.
Regarding `CNC(=O)c1cc2c(cn1)[nH]c1ccccc12` [NH(CH3), β-carbolin-3-carboxylic acid methylamide], the “motility versus saline control” value in the data set on rats [1] (20-100 mg/kg p.o., Student's t-test) is on record as “increased the motility significantly (P<0.001)”. For the same molecule, the “behavior during the experimental” value in the data set on rats [1] was “appeared more alert than the controls during the experimental period and showed more spells of locomotion, eating and grooming”. Further, on benzodiazepine receptors, the “IC50 in vitro, inhibition” value was determined as 0.1 mg/L. In addition, in the data set on benzodiazepin receptors, the “ED50 in vivo, inhibition” value was found to be 25 mg/kg s.c.
On to `CC(C)NC(=O)c1cc2c(cn1)[nH]c1ccccc12` [NH(iso-C3 H7)], for which the ED50 with mice is 75 mg/kg. In addition, on benzodiazepine receptors, the “IC50 in vitro, inhibition” value was 0.15 mg/L. Also, in the data set on benzodiazepin receptors, the “ED50 in vivo, inhibition” value was 23 mg/kg s.c.
Regarding `CCOC(=O)c1cc2c(cn1)[nH]c1ccccc12` [OC2 H5, β-carbolin-3-carboxylic acid ethyl ester], the “motility versus saline control” value with rats [1] (20-100 mg/kg s.c., Student's t-test) was “increased the motility significantly (P<0.001)”. Also, the “behavior during the experimental” value with rats [1] is “appeared more alert than the controls during the experimental period and showed more spells of locomotion, eating and grooming”. For the same molecule, the values for the ED50 in the data set on mice and in the data set on rats [2] were 4 mg/kg and > 100 mg/kg, respectively. In addition, on benzodiazepine receptors, the “IC50 in vitro, inhibition” value was found to be 0.0014 mg/L. For the same molecule, in data set [3], the LD50 at 24 h is > 500 mg/kg. Also, the TD50 at 0.5 h in data set [4] is > 100 mg/kg. In addition, the “ED50 in vivo, inhibition” value with benzodiazepin receptors is on record as 60 mg/kg s.c.
In the case of `CCCCCOC(=O)c1cc2c(cn1)[nH]c1ccccc12` [OC5 H11, n-pentyl β-carbolin-3-carboxylate], the ED50 in the data set with mice turned out to be 50 mg/kg. The “IC50 in vitro, inhibition” value at benzodiazepine receptors is 0.012 mg/L. In addition, the “ED50 in vivo, inhibition” value with benzodiazepin receptors is recorded as > 250 mg/kg s.c.
